Laboratory results taken from patent US20140243335A1, “SUBSTITUTED HYDOXAMIC ACIDS AND USES THEREOF” (Millennium Pharmaceuticals, Inc., priority 2010, published 2014).

biological target: T1, purified human HDAC6 (Homo sapiens, UniProt Q9UBN7); experiment: HDAC6 Enzyme Assay; assay type: biochemical; settings: HDAC6 inhibition at a compound concentration of 0.412 μM; read-out: Percent Inhibition at 0.412 μM
T1 construct: purchased BPS Bioscience 5006
T1 sequence (Q9UBN7 1-1215): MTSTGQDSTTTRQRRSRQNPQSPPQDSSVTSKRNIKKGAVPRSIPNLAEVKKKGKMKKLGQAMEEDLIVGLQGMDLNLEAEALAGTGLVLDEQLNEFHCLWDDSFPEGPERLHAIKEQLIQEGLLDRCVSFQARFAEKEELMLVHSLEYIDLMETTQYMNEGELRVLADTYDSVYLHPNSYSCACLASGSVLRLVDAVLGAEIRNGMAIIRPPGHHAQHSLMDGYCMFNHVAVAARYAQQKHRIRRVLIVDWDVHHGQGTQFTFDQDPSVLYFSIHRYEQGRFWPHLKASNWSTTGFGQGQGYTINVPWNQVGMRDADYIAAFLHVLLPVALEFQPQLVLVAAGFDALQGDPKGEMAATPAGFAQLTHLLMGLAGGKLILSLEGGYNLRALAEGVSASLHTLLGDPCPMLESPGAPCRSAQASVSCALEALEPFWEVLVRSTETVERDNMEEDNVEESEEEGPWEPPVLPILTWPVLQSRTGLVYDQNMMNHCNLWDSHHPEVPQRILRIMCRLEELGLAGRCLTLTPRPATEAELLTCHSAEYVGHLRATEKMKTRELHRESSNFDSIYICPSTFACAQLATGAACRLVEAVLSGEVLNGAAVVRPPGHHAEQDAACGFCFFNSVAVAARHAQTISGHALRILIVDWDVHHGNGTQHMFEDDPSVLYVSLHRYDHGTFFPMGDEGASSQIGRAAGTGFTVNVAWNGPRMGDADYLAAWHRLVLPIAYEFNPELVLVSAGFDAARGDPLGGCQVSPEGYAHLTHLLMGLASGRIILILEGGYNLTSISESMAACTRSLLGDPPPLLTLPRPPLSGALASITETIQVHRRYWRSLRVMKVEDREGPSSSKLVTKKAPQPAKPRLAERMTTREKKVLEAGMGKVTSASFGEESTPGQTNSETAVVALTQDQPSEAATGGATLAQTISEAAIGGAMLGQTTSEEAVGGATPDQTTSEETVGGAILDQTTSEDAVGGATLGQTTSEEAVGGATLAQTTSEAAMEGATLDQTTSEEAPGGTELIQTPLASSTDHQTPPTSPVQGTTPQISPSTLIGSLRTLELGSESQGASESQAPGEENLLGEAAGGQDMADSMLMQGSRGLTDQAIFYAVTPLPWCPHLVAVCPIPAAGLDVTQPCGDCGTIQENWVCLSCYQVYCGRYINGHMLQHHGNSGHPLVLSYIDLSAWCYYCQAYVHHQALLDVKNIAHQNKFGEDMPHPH
Protocol: To measure the inhibition of HDAC6 activity, purified human HDAC6 (BPS Bioscience; Cat. No. 5006) is incubated with substrate Ac-Arg-Gly-Lys(Ac)-AMC peptide (Bachem Biosciences; Cat. No. I-1925) for 1 hour at 30° C. in the presence of test compounds or vehicle DMSO control. The reaction is stopped with the HDAC inhibitor trichostatin A (Sigma; Cat. No. T8552) and the amount of Arg-Gly-Lys-AMC generated is quantitated by digestion with trypsin (Sigma; Cat. No. T1426) and subsequent measurement of the amount of AMC released using a fluorescent plate reader (Pherastar; BMG Technologies) set at Ex 340 nm and Em 460 nm. Concentration response curves are generated by calculating the fluorescence increase in test compound-treated samples relative to DMSO-treated controls, and enzyme inhibition (IC50) values are determined from those curves.

| inhibition at 0.412 µM [%] | SMILES |
| --- | --- |
| 62 | COc1cccc2cc(C(=O)NC3CCCc4cc(C(=O)NO)ccc43)oc12 (stereo not shown) [Compound I-33, N-{6-[(hydroxyamino)carbonyl]-1,2,3,4-tetrahydronaphthalen-1-yl}-7-methoxy-1-benzofuran-2-carboxamide] |
| 2 | O=C(NO)c1ccc2c(c1)CCCC2NC(=O)c1ccc(-c2ccccc2)cc1 (stereo not shown) [Compound I-34, N-{6-[(hydroxyamino)carbonyl]-1,2,3,4-tetrahydronaphthalen-1-yl}biphenyl-4-carboxamide] |
| 74 | Cc1ccc(-c2cc(C(=O)NC3CCCc4cc(C(=O)NO)ccc43)[nH]n2)cc1 (stereo not shown) [Compound I-35, N-{6-[(hydroxyamino)carbonyl]-1,2,3,4-tetrahydronaphthalen-1-yl}-3-(4-methylphenyl)-1H-pyrazole-5-carboxamide] |
| 26 | COc1ccc2c(CC(=O)NC3CCCc4cc(C(=O)NO)ccc43)coc2c1 (stereo not shown) [Compound I-36, N-hydroxy-5-{[(6-methoxy-1-benzofuran-3-yl)acetyl]amino}-5,6,7,8-tetrahydronaphthalene-2-carboxamide] |
| 36 | Cc1oc(S(=O)(=O)N2CCCCC2)cc1C(=O)NC1CCCc2cc(C(=O)NO)ccc21 (stereo not shown) [Compound I-37, N-{6-[(hydroxyamino)carbonyl]-1,2,3,4-tetrahydronaphthalen-1-yl}-2-methyl-5-(piperidin-1-ylsulfonyl)-3-furamide] |
| 18 | Cc1onc(-c2ccccc2Cl)c1C(=O)NC1CCCc2cc(C(=O)NO)ccc21 (stereo not shown) [Compound I-38, 3-(2-chlorophenyl)-N-{6-[(hydroxyamino)carbonyl]-1,2,3,4-tetrahydronaphthalen-1-yl}-5-methylisoxazole-4-carboxamide] |
| 60 | Cc1ccc2[nH]c(C(=O)NC3CCCc4cc(C(=O)NO)ccc43)cc2c1 (stereo not shown) [Compound I-39, N-{6-[(hydroxyamino)carbonyl]-1,2,3,4-tetrahydronaphthalen-1-yl}-5-methyl-1H-indole-2-carboxamide] |
| 48 | O=C(NO)c1ccc2c(c1)CCCC2NC(=O)c1cc2cc(Cl)ccc2o1 (stereo not shown) [Compound I-40, 5-chloro-N-{6-[(hydroxyamino)carbonyl]-1,2,3,4-tetrahydronaphthalen-1-yl}-1-benzofuran-2-carboxamide] |
| 23 | COc1ccc(C(C(=O)NC2CCCc3cc(C(=O)NO)ccc32)c2ccccc2)cc1 (stereo not shown) [Compound I-41, N-hydroxy-5-{[(4-methoxyphenyl)(phenyl)acetyl]amino}-5,6,7,8-tetrahydronaphthalene-2-carboxamide] |
| 71 | O=C(NO)c1ccc2c(c1)CCCC2NC(=O)c1cc(-c2ccc(F)cc2)n[nH]1 (stereo not shown) [Compound I-43, 3-(4-fluorophenyl)-N-{6-[(hydroxyamino)carbonyl]-1,2,3,4-tetrahydronaphthalen-1-yl}-1H-pyrazole-5-carboxamide] |
| 47 | O=C(NO)c1ccc2c(c1)CCCC2NC(=O)c1cc2ccccc2o1 (stereo not shown) [Compound I-45, N-{6-[(hydroxyamino)carbonyl]-1,2,3,4-tetrahydronaphthalen-1-yl}-1-benzofuran-2-carboxamide] |
| 22 | O=C(NO)c1ccc2c(c1)CCCC2NC(=O)C1(c2ccccc2)CCCC1 (stereo not shown) [Compound I-46, N-hydroxy-5-{[(1-phenylcyclopentyl)carbonyl]amino}-5,6,7,8-tetrahydronaphthalene-2-carboxamide] |
| 82 | Cc1c(C(=O)NC2CCc3cc(C(=O)NO)ccc3C2)cc(-c2ccccc2)n1CCCN1CCOCC1 (stereo not shown) [Compound I-47, N-{6-[(hydroxyamino)carbonyl]-1,2,3,4-tetrahydronaphthalen-2-yl}-2-methyl-1-(3-morpholin-4-ylpropyl)-5-phenyl-1H-pyrrole-3-carboxamide] |
| 62 | Cc1cc(C(=O)NC2CCc3cc(C(=O)NO)ccc3C2)c(C)n1Cc1cccs1 (stereo not shown) [Compound I-48, N-{6-[(hydroxyamino)carbonyl]-1,2,3,4-tetrahydronaphthalen-2-yl}-2,5-dimethyl-1-(2-thienylmethyl)-1H-pyrrole-3-carboxamide] |
| 56 | O=C(NO)c1ccc2c(c1)CCC(NC(=O)C1CCCCC1)C2 (stereo not shown) [Compound I-49, 6-[(cyclohexylcarbonyl)amino]-N-hydroxy-5,6,7,8-tetrahydronaphthalene-2-carboxamide] |
| 70 | Cc1cc(C(=O)NC2CCc3cc(C(=O)NO)ccc3C2)c(C)o1 (stereo not shown) [Compound I-50, N-{6-[(hydroxyamino)carbonyl]-1,2,3,4-tetrahydronaphthalen-2-yl}-2,5-dimethyl-3-furamide] |
| 80 | O=C(NO)c1ccc2c(c1)CCC(NC(=O)c1csc3ccccc13)C2 (stereo not shown) [Compound I-52, N-{6-[(hydroxyamino)carbonyl]-1,2,3,4-tetrahydronaphthalen-2-yl}-1-benzothiophene-3-carboxamide] |
| 87 | O=C(NO)c1ccc2c(c1)CCC(NC(=O)c1ccc3occc3c1)C2 (stereo not shown) [Compound I-54, N-{6-[(hydroxyamino)carbonyl]-1,2,3,4-tetrahydronaphthalen-2-yl}-1-benzofuran-5-carboxamide] |
| 78 | Cc1nc2ccccn2c1C(=O)NC1CCc2cc(C(=O)NO)ccc2C1 (stereo not shown) [Compound I-55, N-{6-[(hydroxyamino)carbonyl]-1,2,3,4-tetrahydronaphthalen-2-yl}-2-methylimidazo[1,2-a]pyridine-3-carboxamide] |
| 59 | O=C(NO)c1ccc2c(c1)CCC(NC(=O)C13CC4CC(CC(C4)C1)C3)C2 (stereo not shown) [Compound I-57, N-{6-[(hydroxyamino)carbonyl]-1,2,3,4-tetrahydronaphthalen-2-yl}adamantane-1-carboxamide] |
| 85 | O=C(NO)c1ccc2c(c1)CCC(NC(=O)c1cnn(-c3ccccc3)c1)C2 (stereo not shown) [Compound I-58, N-{6-[(hydroxyamino)carbonyl]-1,2,3,4-tetrahydronaphthalen-2-yl}-1-phenyl-1H-pyrazole-4-carboxamide] |
| 56 | Cc1oc(-c2ccccc2)cc1C(=O)NC1CCc2cc(C(=O)NO)ccc2C1 (stereo not shown) [Compound I-59, N-{6-[(hydroxyamino)carbonyl]-1,2,3,4-tetrahydronaphthalen-2-yl}-2-methyl-5-phenyl-3-furamide] |
| 84 | COc1ccc(C(=O)NC2CCc3cc(C(=O)NO)ccc3C2)cc1 (stereo not shown) [Compound I-61, N-hydroxy-6-[(4-methoxybenzoyl)amino]-5,6,7,8-tetrahydronaphthalene-2-carboxamide] |
| 75 | Cn1cccc1C(=O)NC1CCc2cc(C(=O)NO)ccc2C1 (stereo not shown) [Compound I-62, N-(6-(hydroxycarbamoyl)-1,2,3,4-tetrahydronaphthalen-2-yl)-1-methyl-1H-pyrrole-2-carboxamide] |
| 18 | O=C(NO)c1ccc2c(c1)CCC[C@H]2NC(=O)c1cc2cc(Cl)ccc2o1 [Compound I-63, 5-chloro-N-{(1R)-6-[(hydroxyamino)carbonyl]-1,2,3,4-tetrahydronaphthalen-1-yl}-1-benzofuran-2-carboxamide] |
| 18 | Cn1c(C(=O)N[C@@H]2CCCc3cc(C(=O)NO)ccc32)cc2ccccc21 [Compound I-64, N-{(1R)-6-[(hydroxyamino)carbonyl]-1,2,3,4-tetrahydronaphthalen-1-yl}-1-methyl-1H-indole-2-carboxamide] |
| 16 | Cn1cccc1C(=O)N[C@@H]1CCCc2cc(C(=O)NO)ccc21 [Compound I-65, (R)-N-(6-(hydroxycarbamoyl)-1,2,3,4-tetrahydronaphthalen-1-yl)-1-methyl-1H-pyrrole-2-carboxamide] |
| 49 | O=C(NO)c1ccc2c(c1)CCCC2 [Compound I-66, N-hydroxy-5,6,7,8-tetrahydronaphthalene-2-carboxamide] |
